For 1 molecule, IC50 results are on record in paper PMC4331048 (Molecular and cellular biochemistry, 2011).

The target in the experiment is CK2α (Homo sapiens, UniProt P68400). The experiment in a line: In vitro kinase assay, [γ-32P]ATP phosphorylation of purified CSQ2 by pure CK2α.

pIC50: −log10 of the molar value.

Sequence of CK2α (P68400 whole entry): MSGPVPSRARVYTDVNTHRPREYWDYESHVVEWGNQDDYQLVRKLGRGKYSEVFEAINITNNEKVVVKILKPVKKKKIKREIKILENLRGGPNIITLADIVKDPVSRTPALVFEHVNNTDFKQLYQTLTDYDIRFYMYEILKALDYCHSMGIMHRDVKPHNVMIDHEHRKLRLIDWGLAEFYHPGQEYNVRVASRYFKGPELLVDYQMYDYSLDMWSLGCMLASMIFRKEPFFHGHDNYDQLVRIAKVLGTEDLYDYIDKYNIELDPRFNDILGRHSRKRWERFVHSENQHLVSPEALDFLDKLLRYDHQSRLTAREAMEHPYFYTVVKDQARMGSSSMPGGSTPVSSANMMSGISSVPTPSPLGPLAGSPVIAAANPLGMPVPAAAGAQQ

Turning to `O=C(O)/C=C/c1cc(Br)c(Br)c(Br)c1Br` [TBCA], the pIC50 – broadly, −log10 of the IC50, conventionally taken in molar units – is around 5.00.
